The source of these data is publication PMC9616851, “Structural mechanism of SGLT1 inhibitors” (Nature Communications, 2022).

Structures are written as SMILES.

In the assay the target is T1, hSGLT1 (Homo sapiens, UniProt P13866).
T1 construct: gene SLC5A1; hSGLT1GFP-MAP17nb: GFP fused between Q581 and E582 of hSGLT1; anti-GFP nanobody fused after E57 of MAP17 (1-57); in nanodisc; with MAP17
T1 sequence (P13866 1-581): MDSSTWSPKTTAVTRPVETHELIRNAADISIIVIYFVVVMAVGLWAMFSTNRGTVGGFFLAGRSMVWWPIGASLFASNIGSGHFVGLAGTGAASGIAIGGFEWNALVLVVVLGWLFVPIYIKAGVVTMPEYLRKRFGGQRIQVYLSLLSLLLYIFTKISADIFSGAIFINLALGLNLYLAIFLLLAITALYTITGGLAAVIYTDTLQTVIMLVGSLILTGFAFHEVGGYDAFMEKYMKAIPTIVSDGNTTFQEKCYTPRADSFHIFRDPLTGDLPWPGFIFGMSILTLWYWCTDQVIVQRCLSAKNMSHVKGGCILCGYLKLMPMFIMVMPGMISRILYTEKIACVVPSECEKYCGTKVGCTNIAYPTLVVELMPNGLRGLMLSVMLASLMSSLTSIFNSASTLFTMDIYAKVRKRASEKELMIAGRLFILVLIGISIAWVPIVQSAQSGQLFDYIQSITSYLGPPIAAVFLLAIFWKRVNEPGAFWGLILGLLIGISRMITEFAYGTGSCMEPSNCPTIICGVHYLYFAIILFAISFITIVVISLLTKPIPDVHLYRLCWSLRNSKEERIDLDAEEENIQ
T1 sequence (P13866 582-664): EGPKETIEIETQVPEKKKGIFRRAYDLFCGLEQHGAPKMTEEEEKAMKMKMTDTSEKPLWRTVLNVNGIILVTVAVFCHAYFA
T1 sequence (Q13113 1-57 partner): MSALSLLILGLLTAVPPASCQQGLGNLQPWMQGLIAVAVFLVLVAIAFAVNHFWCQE
The assay is described as follows: cryo-EM structure at […] Å; 1-NBD-glucose uptake inhibition in cells (IC50 […] for this construct, […] for non-tagged hSGLT1). It is filed as cell-based.

Usually IC50 stands for the concentration that gives 50% inhibition. A low value points to greater potency. In turn, `CS[C@H]1O[C@@H](c2ccc(C)c(Cc3ccc(CCCC(=O)NC(C)(C)C(=O)NCCN(C)C)cc3)c2)[C@H](O)[C@@H](O)[C@@H]1O` [LX2761] had an IC50 of 2.3 nM.
